Patent publication US4138554A, “7-[D-α-(4-Hydroxy-1,5-naphthyridine-3-carboxamido)-α-phenyl (and p-hydroxyphenyl)acetamido]-3-carbamoyloxymethyl-3-cephem-4-carboxylic acids” (priority 1977, dated 1979)
Read-outs that look alike come from different tables or passages of the source.

Columns and labels:
Pseudomonas aeruginosa = assay: MIC by agar dilution against 61 strains of Pseudomonas aeruginosa, secondary evaluation; type: cell-based; settings: Pseudomonas aeruginosa, read-out: MIC
Summary of the method: (§1)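 Steers' apparatus delivers inocula onto Mueller-Hinton agar containing serial two-fold dilutions; MIC is recorded per strain.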

S. enteritidis = assay: MIC by serial two-fold agar dilution (Mueller-Hinton agar), S. enteritidis; type: cell-based; settings: Salmonella enterica; S. enteritidis, Table 1; read-out: MIC
Summary of the method: (§2)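 Read-out is the minimum inhibitory concentration from agar plates (Mueller-Hinton) carrying serial two-fold drug dilutions, inoculated via Steers' apparatus. Strains: 31 test organisms in primary screening, 61 P. aeruginosa isolates for secondary evaluation.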

K. pneumoniae = assay: MIC by serial two-fold agar dilution (Mueller-Hinton agar), K. pneumoniae; type: cell-based; settings: Klebsiella pneumoniae, K. pneumoniae, Table 1
Summary of the method: as §2

P. vulgaris = assay: MIC by serial two-fold agar dilution (Mueller-Hinton agar), P. vulgaris; type: cell-based; settings: Proteus vulgaris; P. vulgaris, Table 1; read-out: MIC
Summary of the method: as §2

E. coli = assay: MIC by serial two-fold agar dilution (Mueller-Hinton agar), E. coli; type: cell-based; settings: Escherichia coli, Table 1, read-out: MIC
Summary of the method: as §1

E. coli Juhl = assay: Median curative dose in mice, infection with E. coli Juhl; type: in vivo; settings: Escherichia coli, sc; subcutaneous injection in mice, E. coli Juhl, Table 4; read-out: Median Curative Dose (PD50)
Source text: (§3) Median Curative Dose in Mgm./Kg.
(§4) Upon Subcutaneous Injection in Mice

S. aureus = assay: MIC by serial two-fold agar dilution (Mueller-Hinton agar), S. aureus; type: cell-based; settings: Staphylococcus aureus, read-out: MIC
Summary of the method: as §1

S. aureus Smith = assay: Median curative dose in mice, infection with S. aureus Smith; type: in vivo; settings: Staphylococcus aureus, sc; subcutaneous injection in mice, S. aureus Smith, Table 4; read-out: Median Curative Dose (PD50)
Source text: as §3, §4

Pseudomonas (6 strains) = assay: Mean % relative activity (MIC) vs sulbenicillin, Pseudomonas (6 strains); type: cell-based; settings: for Mean % Relative Activity (SPBC = 100%): P. aerug. (6 strains)
Protocol: Minimum inhibitory concentrations (MIC) of BB-S520 were determined by serial two-fold agar dilution method using Steers' apparatus on Meuller-Hinton agar plate against 31 test organisms for the primary screening and also against 61 strains of Pseudomonas aeruginosa for the secondary evaluation. The results are shown in Table 1 and Table 2 along with those of BB-S514 and sulbenicillin.
Minimum inhibitory concentrations (MIC) of cephalosporins in the present study were determined by serial two-fold agar dilution method using Steers' apparatus on Mueller-Hinton agar plate against 31 test organisms for the primary screening and also against 61 strains of Pseudomonas aeruginosa for the secondary evaluation.

NC(=O)OCC1=C(C(=O)O)N2C(=O)C(NC(=O)[C@H](NC(=O)c3cnc4cccnc4c3O)c3ccccc3)[C@H]2SC1 (stereo partly drawn) [BB-S520, Sodium 7-[D-α-(4-hydroxy-1,5-naphthyridine-3-carboxamido)-α-phenylacetamido]-3-carbamoyloxymethyl-3-cephem-4-carboxylate]
3.1 mg/L: MIC (Pseudomonas aeruginosa; BBRI Pa-No. 37, Table 7) | MIC (Pseudomonas aeruginosa; BBRI Pa-No. 39, Table 2) | MIC (Pseudomonas aeruginosa; BBRI Pa-No. 41, Table 2) | MIC (Pseudomonas aeruginosa; BBRI Pa-No. 41, Table 7) | MIC (Pseudomonas aeruginosa; BBRI Pa-No. 43, Table 7) | MIC (Pseudomonas aeruginosa; BBRI Pa-No. 44 (unnamed strain), Table 7) | MIC (Pseudomonas aeruginosa; BBRI Pa-No. 51, Table 2) | MIC (Pseudomonas aeruginosa; BBRI Pa-No. 52, Table 2) | MIC (Pseudomonas aeruginosa; BBRI Pa-No. 52, Table 7) | MIC (Pseudomonas aeruginosa; BBRI Pa-No. 53, Table 2) | MIC (Pseudomonas aeruginosa; BBRI Pa-No. 54, Table 2) | MIC (Pseudomonas aeruginosa; BBRI Pa-No. 55, Table 2) | MIC (Pseudomonas aeruginosa; BBRI Pa-No. 55, Table 7) | MIC (Pseudomonas aeruginosa; BBRI Pa-No. 56, Table 2) | MIC (Pseudomonas aeruginosa; BBRI Pa-No. 56, Table 7) | MIC (Pseudomonas aeruginosa; BBRI Pa-No. 57, Table 2) | MIC (Pseudomonas aeruginosa; BBRI Pa-No. 58, Table 7) | MIC (Pseudomonas aeruginosa; BBRI Pa-No. 60, Table 2) | MIC (Pseudomonas aeruginosa; BBRI Pa-No. 64, Table 2) | MIC (Pseudomonas aeruginosa; BBRI Pa-No. 64, Table 7) | MIC (Pseudomonas aeruginosa; BBRI Pa-No. 65, Table 2) | MIC (Pseudomonas aeruginosa; BBRI Pa-No. 66, Table 2) | MIC (Pseudomonas aeruginosa; BBRI Pa-No. 67, Table 7) | MIC (Pseudomonas aeruginosa; BBRI Pa-No. 68, Table 7) | MIC (Pseudomonas aeruginosa; BBRI Pa-No. 70, K-Ps102 (CR-102), Table 2) | MIC (Pseudomonas aeruginosa; GN315, BBRI Pa-No. 27, GN315, Table 2) | MIC (S. enteritidis) | MIC (E. coli; E. coli, unnamed strain (6th E. coli line)) | MIC (E. coli; E. coli, unnamed strain (8th E. coli line))
1.6 mg/L: MIC (Pseudomonas aeruginosa; BBRI Pa-No. 39, Table 7) | MIC (Pseudomonas aeruginosa; BBRI Pa-No. 42, Table 7) | MIC (Pseudomonas aeruginosa; BBRI Pa-No. 51, Table 7) | MIC (Pseudomonas aeruginosa; BBRI Pa-No. 53, Table 7) | MIC (Pseudomonas aeruginosa; BBRI Pa-No. 54, Table 7) | MIC (Pseudomonas aeruginosa; BBRI Pa-No. 57, Table 7) | MIC (Pseudomonas aeruginosa; BBRI Pa-No. 59, Table 7) | MIC (Pseudomonas aeruginosa; BBRI Pa-No. 60, Table 7) | MIC (Pseudomonas aeruginosa; BBRI Pa-No. 61, Table 7) | MIC (Pseudomonas aeruginosa; BBRI Pa-No. 65, Table 7) | MIC (Pseudomonas aeruginosa; BBRI Pa-No. 66, Table 7) | MIC (Pseudomonas aeruginosa; BBRI Pa-No. 70, K-Ps102(CR-102), Table 7) | MIC (Pseudomonas aeruginosa; GN315, BBRI Pa-No. 27, GN315, Table 7) | MIC (K. pneumoniae) | MIC (E. coli; E. coli Juhl) | MIC (S. aureus; S. aureus Smith (2nd line), Table 1) | MIC (S. aureus; S. aureus, unnamed strain (5th S. aureus line), Table 1)
635%: Mean % Relative Activity (SPBC = 100%) (Pseudomonas (6 strains); lot 1, Table 5) | Mean % Relative Activity (Sulbenicillin = 100%) (Pseudomonas (6 strains); Pseudomonas (6 strains), from geometric means of MICs in Table 1)
12.5 mg/L: MIC (Pseudomonas aeruginosa; BBRI Pa-No. 69, Table 2)
712%: Mean % Relative Activity (SPBC = 100%) (Pseudomonas (6 strains); lot 2, Table 5)
0.05 mg/L: MIC (E. coli; E. coli NIHJ)
0.4 mg/L: MIC (E. coli; E. coli, unnamed strain (9th E. coli line))
50 mg/L: MIC (Pseudomonas aeruginosa; BBRI Pa-No. 62, Table 7) | MIC (S. aureus; S. aureus, unnamed strain (6th S. aureus line), Table 1)
0.8 mg/kg: ED50 (S. aureus Smith)
0.8 mg/L: MIC (E. coli; E. coli, unnamed strain (4th E. coli line)) | MIC (S. aureus; S. aureus BX-1633, Table 1) | MIC (S. aureus; S. aureus Smith (1st line), Table 1)
1.8 mg/kg: ED50 (E. coli Juhl)
25 mg/L: MIC (S. aureus; S. aureus, unnamed strain (4th S. aureus line), Table 1)
6.3 mg/L: MIC (Pseudomonas aeruginosa; BBRI Pa-No. 38, Table 2) | MIC (Pseudomonas aeruginosa; BBRI Pa-No. 38, Table 7) | MIC (Pseudomonas aeruginosa; BBRI Pa-No. 42, Table 2) | MIC (Pseudomonas aeruginosa; BBRI Pa-No. 43, Table 2) | MIC (Pseudomonas aeruginosa; BBRI Pa-No. 44, Table 2) | MIC (Pseudomonas aeruginosa; BBRI Pa-No. 58, Table 2) | MIC (Pseudomonas aeruginosa; BBRI Pa-No. 59, Table 2) | MIC (Pseudomonas aeruginosa; BBRI Pa-No. 61, Table 2) | MIC (Pseudomonas aeruginosa; BBRI Pa-No. 62, Table 2) | MIC (Pseudomonas aeruginosa; BBRI Pa-No. 67, Table 2) | MIC (Pseudomonas aeruginosa; BBRI Pa-No. 68, Table 2) | MIC (Pseudomonas aeruginosa; BBRI Pa-No. 69, Table 7) | MIC (Pseudomonas aeruginosa; GN4925, BBRI Pa-No. 44, GN4925, Table 7) | MIC (Pseudomonas aeruginosa; GN4925, BBRI Pa-No. 45, GN4925, Table 2)
100 mg/L: MIC (P. vulgaris) | MIC (E. coli; E. coli, unnamed strain (5th E. coli line)) | MIC (E. coli; E. coli, unnamed strain (7th E. coli line))
